Where a SMILES comes first, the peptide text is derived from it. [ ]: non-standard residue; d: D form. pGlu = O=C1CC[C@@H](C(=O)O)N1; Thz = O=C(O)[C@@H]1CSCN1
Assays:
Androgen receptor [1] = target: T1, Androgen receptor (Rattus norvegicus, UniProt P15207); type: functional
T1 sequence (P15207 whole entry): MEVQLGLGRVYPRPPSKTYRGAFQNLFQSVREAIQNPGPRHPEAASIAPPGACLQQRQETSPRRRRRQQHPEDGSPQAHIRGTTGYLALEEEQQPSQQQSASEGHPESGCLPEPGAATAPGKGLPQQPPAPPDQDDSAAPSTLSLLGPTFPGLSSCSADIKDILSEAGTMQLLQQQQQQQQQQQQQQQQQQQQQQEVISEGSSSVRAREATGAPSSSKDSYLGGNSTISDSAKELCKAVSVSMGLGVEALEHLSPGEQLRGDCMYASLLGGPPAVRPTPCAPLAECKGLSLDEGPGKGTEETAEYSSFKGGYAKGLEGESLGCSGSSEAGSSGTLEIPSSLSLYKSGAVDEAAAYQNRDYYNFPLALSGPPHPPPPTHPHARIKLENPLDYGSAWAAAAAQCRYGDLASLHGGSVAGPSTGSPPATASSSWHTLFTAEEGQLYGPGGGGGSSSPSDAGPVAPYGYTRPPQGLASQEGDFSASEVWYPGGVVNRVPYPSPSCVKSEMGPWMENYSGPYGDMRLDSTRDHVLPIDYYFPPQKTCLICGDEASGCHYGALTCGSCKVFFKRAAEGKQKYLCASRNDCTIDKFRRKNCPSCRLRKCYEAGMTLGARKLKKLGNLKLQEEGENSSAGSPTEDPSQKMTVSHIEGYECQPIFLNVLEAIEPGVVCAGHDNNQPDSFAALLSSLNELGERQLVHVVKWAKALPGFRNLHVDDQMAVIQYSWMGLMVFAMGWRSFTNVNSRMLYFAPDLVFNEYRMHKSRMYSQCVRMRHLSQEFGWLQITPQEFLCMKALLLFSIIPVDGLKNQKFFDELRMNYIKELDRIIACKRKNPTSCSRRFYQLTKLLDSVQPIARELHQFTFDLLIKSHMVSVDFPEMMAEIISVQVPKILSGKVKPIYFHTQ

Endothelin-1 receptor = target: T2, Endothelin-1 receptor (Homo sapiens, UniProt P25101)
T2 sequence (P25101 whole entry): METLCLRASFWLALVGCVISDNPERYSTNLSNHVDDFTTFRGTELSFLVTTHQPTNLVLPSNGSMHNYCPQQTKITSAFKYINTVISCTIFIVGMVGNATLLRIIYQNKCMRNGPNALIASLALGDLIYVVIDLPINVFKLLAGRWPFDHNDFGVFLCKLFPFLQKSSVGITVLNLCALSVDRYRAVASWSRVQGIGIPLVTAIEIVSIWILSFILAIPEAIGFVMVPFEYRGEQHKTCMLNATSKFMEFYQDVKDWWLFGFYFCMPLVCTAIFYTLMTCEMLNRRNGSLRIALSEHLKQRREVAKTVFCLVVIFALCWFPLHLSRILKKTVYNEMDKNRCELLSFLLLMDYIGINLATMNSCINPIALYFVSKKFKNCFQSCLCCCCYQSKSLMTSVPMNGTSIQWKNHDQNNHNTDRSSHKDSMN

Androgen receptor [2] = target: T1, Androgen receptor; type: functional; remark: listed apart in the source
[3] = target: T3, 5-hydroxytryptamine receptor 1A (Homo sapiens, UniProt P08908)
T3 sequence (P08908 whole entry): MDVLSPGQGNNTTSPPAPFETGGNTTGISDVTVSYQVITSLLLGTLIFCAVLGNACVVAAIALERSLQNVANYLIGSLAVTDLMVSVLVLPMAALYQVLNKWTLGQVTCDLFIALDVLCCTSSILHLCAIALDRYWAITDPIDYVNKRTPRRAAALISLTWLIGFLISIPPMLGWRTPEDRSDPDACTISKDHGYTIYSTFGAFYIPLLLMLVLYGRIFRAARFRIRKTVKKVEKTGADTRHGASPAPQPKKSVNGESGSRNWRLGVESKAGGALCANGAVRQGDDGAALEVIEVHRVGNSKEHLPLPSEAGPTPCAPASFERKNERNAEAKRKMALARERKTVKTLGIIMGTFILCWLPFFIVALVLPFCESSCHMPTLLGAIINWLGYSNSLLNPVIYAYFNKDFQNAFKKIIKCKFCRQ

Progesterone receptor = target: T4, Progesterone receptor (Homo sapiens, UniProt P06401)
T4 sequence (P06401 whole entry): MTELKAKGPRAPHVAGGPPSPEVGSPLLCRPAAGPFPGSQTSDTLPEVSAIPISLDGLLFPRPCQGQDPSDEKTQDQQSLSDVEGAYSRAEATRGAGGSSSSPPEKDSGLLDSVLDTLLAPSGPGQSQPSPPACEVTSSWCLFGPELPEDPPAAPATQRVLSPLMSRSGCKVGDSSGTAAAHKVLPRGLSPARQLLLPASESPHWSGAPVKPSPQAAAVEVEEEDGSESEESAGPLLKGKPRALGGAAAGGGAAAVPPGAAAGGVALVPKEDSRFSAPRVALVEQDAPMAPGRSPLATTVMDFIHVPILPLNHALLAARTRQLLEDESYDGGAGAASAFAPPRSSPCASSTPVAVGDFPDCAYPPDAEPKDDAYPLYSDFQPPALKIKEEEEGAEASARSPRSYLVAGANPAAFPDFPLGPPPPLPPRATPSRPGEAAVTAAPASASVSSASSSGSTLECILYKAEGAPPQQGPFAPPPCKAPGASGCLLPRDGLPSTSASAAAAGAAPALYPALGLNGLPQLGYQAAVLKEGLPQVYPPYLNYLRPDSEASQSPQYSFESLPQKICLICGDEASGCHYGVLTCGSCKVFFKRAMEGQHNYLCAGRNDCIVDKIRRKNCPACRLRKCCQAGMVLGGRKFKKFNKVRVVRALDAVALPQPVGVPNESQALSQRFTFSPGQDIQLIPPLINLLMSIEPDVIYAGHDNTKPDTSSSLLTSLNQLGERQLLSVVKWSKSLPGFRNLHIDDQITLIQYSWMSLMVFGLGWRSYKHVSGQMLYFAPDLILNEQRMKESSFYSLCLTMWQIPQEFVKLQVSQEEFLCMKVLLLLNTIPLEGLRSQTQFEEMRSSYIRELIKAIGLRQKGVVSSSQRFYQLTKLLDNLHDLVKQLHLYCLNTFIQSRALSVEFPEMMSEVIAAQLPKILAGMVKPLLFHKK

Androgen receptor [4] = target: T1, Androgen receptor
Note: assay procedure not described here.

Row | Structure (SMILES) | AC50 (Endothelin-1 receptor) | AC50 [3] | AC50 (Progesterone receptor) | further results
1 | Clc1ccc(CCC(Cn2ccnc2)Sc2c(Cl)cccc2Cl)cc1 (stereo unspecified) [BUTOCONAZOLE] | > 30 µM |  |  | AC50 (Androgen receptor [1]): > 30 µM; AC50 (Androgen receptor [2]): 9.2 µM
2 | CO/N=C(\C(=O)N[C@@H]1C(=O)N2C(C(=O)O)=CCS[C@H]12)c1csc(N)n1 [CEFTIZOXIME] | > 30 µM |  |  | 
3 | CCc1nc(N)nc(N)c1-c1ccc(Cl)cc1 [PYRIMETHAMINE] |  | > 10 µM |  | 
4 | O=c1c(O)c(-c2ccc(O)c(O)c2)oc2cc(O)cc(O)c12 [QUERCETIN] | > 30 µM | > 10 µM | 14.1 µM | 
5 | O=c1[nH]c2ccccc2n1CCCN1CCN(C(c2ccccc2)c2ccccc2)CC1 [OXATOMIDE] | > 30 µM |  |  | 
6 | CCC(=O)O[C@](Cc1ccccc1)(c1ccccc1)[C@H](C)CN(C)C [PROPOXYPHENE] | > 30 µM | > 10 µM | > 30 µM | 
7 | Cc1ccnc2c1NC(=O)c1cccnc1N2C1CC1 [NEVIRAPINE] | > 30 µM | > 10 µM | > 30 µM | 
8 | O=C1CC[C@@H](C(=O)N2CSC[C@H]2C(=O)O)N1 [PIDOTIMOD] ([pGlu]-[Thz]-OH) | > 30 µM |  |  | AC50 (Androgen receptor [1]): > 30 µM; AC50 (Androgen receptor [2]): > 30 µM
9 | CCOC(=O)c1ccc(C#Cc2ccc3c(c2)C(C)(C)CCS3)nc1 [TAZAROTENE] |  | > 10 µM | > 30 µM | 
10 | COc1ccc(CN2CCN(C(c3ccc(F)cc3)c3ccc(F)cc3)CC2)c(OC)c1OC [LOMERIZINE] | > 30 µM |  |  | 
11 | Oc1ccc(CCNCCCCCCNCCc2ccccc2)cc1O [DOPEXAMINE] | > 30 µM |  |  | 
12 | CCN1CCCC1CNC(=O)c1cc(S(=O)(=O)CC)ccc1OC (stereo unspecified) [SULTOPRIDE] | > 30 µM |  |  | AC50 (Androgen receptor [1]): > 30 µM; AC50 (Androgen receptor [2]): > 30 µM
13 | COc1cc(C(=O)NC2CCCNC2)cc(OC)c1OC (stereo unspecified) [TROXIPIDE] | > 30 µM |  |  | 
14 | CC(C(=O)O)c1ccc2c(c1)CC(=O)c1ccccc1S2 (stereo unspecified) [ZALTOPROFEN] | > 30 µM |  |  | AC50 (Androgen receptor [1]): > 30 µM; AC50 (Androgen receptor [2]): > 30 µM
15 | NNC(=O)c1ccncc1 [ISONIAZID] | > 30 µM | > 10 µM | > 30 µM | 
16 | CC(c1cc2ccccc2s1)N(O)C(N)=O (stereo unspecified) [ZILEUTON] |  |  |  | AC50 (Androgen receptor [4]): > 30 µM
17 | CCc1cc2c(s1)-n1c(C)nnc1CN=C2c1ccccc1Cl [ETIZOLAM] | > 30 µM |  |  | 
18 | CCCN1CCCC[C@H]1C(=O)Nc1c(C)cccc1C [ROPIVACAINE] | > 30 µM |  |  | 
19 | Oc1cc(O)c(Cl)cn1 | > 30 µM |  |  | 
20 | CC(C)NC[C@H](O)COc1ccc(CC(N)=O)cc1 [ESATENOLOL] | > 30 µM | > 10 µM | > 30 µM | 
21 | CC/C=C\C/C=C\C/C=C\C/C=C\C/C=C\CCCC(=O)OCC [ICOSAPENT ETHYL] | > 30 µM |  |  | AC50 (Androgen receptor [1]): > 30 µM; AC50 (Androgen receptor [2]): 23 µM
22 | C[C@]12C/C(=C/O)C(=O)C[C@@H]1CC[C@@H]1[C@@H]2CC[C@@]2(C)[C@H]1CC[C@]2(C)O [OXYMETHOLONE] | > 30 µM |  |  | 
23 | CCCCOc1ccc(C(=O)CCN2CCCCC2)cc1 [DYCLONINE] | > 30 µM | > 10 µM | > 30 µM | 

From ChEMBL document CHEMBL5291721, “A preclinical secondary pharmacology resource illuminates target-adverse drug reaction associations of marketed drugs” (Nat Commun, 2023)
